# Test results published in publication PMC5482243 (Investigative Ophthalmology & Visual Science, 2017).
# Where two headings read alike, the source gives them in different places.
# Key:
# Experiment in all cases: β-arrestin recruitment assay
# Type in all cases: cell-based
# GPR143 (pm-GPR143) [1] = molecular target: T1, GPR143 (pm-GPR143) (Homo sapiens, UniProt P51810, E330A/L223A/L224A/W329A)
# GPR143 (pm-GPR143) [2] = molecular target: T1, GPR143 (pm-GPR143); remark: listed apart in the source
# GPR143 (wt-GPR143) = GPR143 (wt-GPR143) (Homo sapiens, UniProt P51810)
# GPR143 (wt-GPR143), sequence (P51810 whole entry): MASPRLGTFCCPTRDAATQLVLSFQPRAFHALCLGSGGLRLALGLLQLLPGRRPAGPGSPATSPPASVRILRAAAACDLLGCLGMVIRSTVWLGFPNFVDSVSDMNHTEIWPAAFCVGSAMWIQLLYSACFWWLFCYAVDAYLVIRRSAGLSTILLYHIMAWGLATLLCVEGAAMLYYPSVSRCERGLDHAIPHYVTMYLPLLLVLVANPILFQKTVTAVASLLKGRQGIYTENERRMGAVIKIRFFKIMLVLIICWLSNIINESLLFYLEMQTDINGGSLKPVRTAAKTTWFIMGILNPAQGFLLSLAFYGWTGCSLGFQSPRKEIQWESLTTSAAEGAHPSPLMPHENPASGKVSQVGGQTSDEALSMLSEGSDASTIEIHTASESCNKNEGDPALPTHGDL
# T1 sequence (P51810 whole entry L223A/L224A/W329A/E330A): as the sequence (P51810 whole entry) above, with L223A, L224A, W329A, E330A counted along it
compound,measurement,setting,value
CCOc1ccc2nc3cc(N)ccc3c(N)c2c1 [ethacridine lactate],EC50,GPR143 (pm-GPR143) [1],26.1 ± 1.03 µM
O=C(Nc1ccc([N+](=O)[O-])cc1Cl)c1cc(Cl)ccc1O [niclosamide],EC50,GPR143 (pm-GPR143) [1],3.4 ± 1.11 µM
O=c1[nH]c2ccccc2n1C1CCN(CCCC(c2ccc(F)cc2)c2ccc(F)cc2)CC1 [pimozide],EC50,GPR143 (pm-GPR143) [2],2.72 ± 1.17 µM
same,EC50,GPR143 (wt-GPR143),4.62 ± 1.37 µM
